A short description of series [1]: In vivo pharmacokinetics in blood plasma. Set-up: species or system male CD-1 (ICD) mice. As to conditions: for T1/2 (min, PO) / Cmax / Tmax: 5 mg/kg, PO; for Bio-availability (%): [AUClast(PO)*Dose(IV)] / [AUClast(IV)*Dose(PO)], PO 5 mg/kg, IV 1 mg/kg; for Tmax: read-out: Tmax (min, PO) (converted). The protocol: Evaluation of the in vivo pharmacokinetics of a subset of compounds was performed through analysis of compound concentration in the blood plasma of male CD-1 (ICD) mice (each weighing 20-30g) over a 24 hour period (at time points of 3, 10, 30, 60, 120, 240, 360 and1440 minutes) following a single oral (PO) and intravenous (IV, in tail vein) administration of a compound dose corresponding to 5 mg of compound/kg of mouse body weight (PO) and 1 mg of compound/kg of mouse body weight (IV). For IV dosing, each compound was formulated as a clear solution in DMSO/Solutol® HS 15/phosphate-buffered saline, pH 7.4 (PBS) (5/5/90, v/v/v). For PO dosing, compounds were formulated as a homogeneous suspension in DMSO/1% methylcellulose (5/95, v/v).
At the relevant time point, blood samples (300-400 µL) were collected from the mice under general inhalant anaesthesia by cardiac puncture and stored on ice in 0.6 mL polypropylene heparin-lithium-coated tubes. Within 1 hour of collection, each tube was centrifuged at 2500 G for 15 minutes at 4°C and harvested plasma stored at -20°C.
Compound concentration in plasma at each time point was determined following acetonitrile precipitation of each sample followed by HPLC-MS analysis performed in triplicates, i.e., based on the mean of the compound concentration at that time point in blood samples of three mice.
T1/2 is the terminal elimination half-life following IV and PO dosing (obtained from non-compartmental analysis (NCA) of the plasma data using WinNonLin). Tmax is the time following PO administration at which the maximum concentration is observed (obtained from non-compartmental analysis (NCA) of the plasma data using WinNonLin). Cmax corresponds to the concentration observed at Tmax following PO administration (obtained from non-compartmental analysis (NCA) of the plasma data using WinNonLin). Bioavailability was calculated as the ratio of: [AUClast(PO)*Dose(IV)] / [AUClast(IV)*Dose(PO)] where AUClast is the area under the curve (estimated by summing incremental areas of a series of trapezoids) of a plot of compound concentration versus time, up to the time of the last observation that is greater than the limit of quantification. Table 6: In vivo pharmacokinetics (min: minutes)

The target in series [2] is T1, EphA3 (Homo sapiens, UniProt P29320).
T1 construct: A clone of EphA3 kinase domain (residues: 606-947); made in house; host or cells: Escherichia coli BL21 (DE3)
T1 sequence (P29320 606-947): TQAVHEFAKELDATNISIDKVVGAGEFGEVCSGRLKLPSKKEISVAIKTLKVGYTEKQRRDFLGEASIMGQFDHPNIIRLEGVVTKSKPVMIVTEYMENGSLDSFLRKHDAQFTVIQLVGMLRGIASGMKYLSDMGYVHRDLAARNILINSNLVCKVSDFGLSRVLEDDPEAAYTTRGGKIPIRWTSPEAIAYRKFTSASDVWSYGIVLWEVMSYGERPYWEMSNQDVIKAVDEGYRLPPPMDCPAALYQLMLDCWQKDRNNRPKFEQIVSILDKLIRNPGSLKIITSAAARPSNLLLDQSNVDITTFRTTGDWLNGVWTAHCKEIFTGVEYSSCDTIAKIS
The series is described as follows: Surface Plasmon Resonance (SPR) determination of Kd. The class given is binding. The settings on record: immobilized EphA3, 20 mM PBS pH 7.4, 150 mM NaCl. The source says:
The EphA3-compound dissociation constant (Kd) in Table 2 were obtained following the experimental protocol of Jecklin M.C., et al (Journal of Molecular Recognition 22(4), 319-329), subject to the following modifications: • 1) EphA3 protein was purified as per the protocol given in the "Experimental Section" of Lafleur K., Dong J., Huang D., Caflisch A. and C. Nevado (Journal of Medicinal Chemistry, 2013; 56(1):84-96), under the header "Protein Expression and Purification". Protein concentration was determined using a NanoDrop 1000 from Thermo Scientific (Witec AG, Littau LU, Switzerland). • 2) Under "Instrumentation and reagents": 20 mM PBS pH 7.4, 150 mM NaCl was used as running buffer. • 3) Under "Enzyme immobilization": Following activation of flow cells, 300 µg/ml of EphA3 in immobilization buffer was injected over a 2 minute time period. Residual activated groups on the surface were then blocked by a 7 minute injection of 1 M ethanolamine, pH 8.5. […] Each suspension was then analyzed, commencing from the lowest and proceeding to the highest concentration, and then run in duplicate from the highest to the lowest concentration. During each binding cycle, the compound suspension was injected during a time period of 6 minutes at a flow rate of 5 µl/min and dissociation was monitored for 900 s. […]

Series [3] has as its target T1, EphA3. Description: Differential Scanning Fluorimetry. The class given is binding. The settings on record: 2 µM EphA3, compound 20µM; read-out: Delta Tm. The protocol:
Cell pellets were resuspended in buffer A (50mM Tris, pH 8.0 and 100mM NaCl, supplemented with protease inhibitors) and lysed by sonication. After centrifugation at 15,000 rpm for 1 h, the soluble fraction of EphA3 was purified using […] (GE healthcare), followed by gel filtration chromatography (Superdex75; GE healthcare). The appropriate fractions were combined and concentrated to ~10 mg/mL using Amicon filter devices (10kDa as cutoff) in a storage solution (100mM sodium chloride and 10mM Tris-HCl pH 8.0, 5% glycerol). The resulting solution was aliquoted and stored at -80°C for further usage.
A final volume of 40µL was added per well in a 96 well plate and incubated at room temperature for 1 h. The plates were centrifuged for 3 min at 450 rcf. The temperature gradient was performed in the range of 25°C-75°C (50 acquisitions per degree at a ramp rate of 4.4°C/s) using a LightCycler 480 Real-Time PCR System. […] All measurements were performed in triplicate.
A general note: In DSF a fluorescence change marks the thermal transition of the protein.

Where [4] appears, read: male, CD-1 (ICD), mouse, mice plasma.

Each structure is given as a SMILES string.

Broadly, the Cmax is the maximum level reached in the sampled fluid or tissue. A word on the Tmax: it is the time at which the peak concentration occurs. In general, Kd refers to the constant that tells how readily two partners part at equilibrium. Take `NC(=O)c1c(N)n(-c2cccc(C(=O)Nc3cccc(C(F)(F)F)c3)c2)c2nc3ccccc3nc12` [Compound 10c, 2-amino-1-(3-((3-(trifluoromethyl)phenyl)carbamoyl)phenyl)-1H-pyrrolo[2,3-b]quinoxaline-3-carboxamide]: the “T1/2 (min, IV)” value in series [1] (IV, 1 mg/kg, mice plasma) stood at 1.1 h. In addition, in series [1] (mice plasma), the “T1/2 (min, PO)” value amounted to 2.78 h. In addition, the “Bio-availability (%)” value in series [1] was determined as 30%. Moreover, in series [1] (setting [4]), the concentration peaked (Cmax) at 164 ng/mL and the Tmax was 1 h. The compound also gave a Kd at EphA3 [2] of 3.7 nM. Also, the ΔTm at 20 µM at EphA3 [3] was determined as 9.1 °C.

Turning to `NC(=O)c1c(N)n(-c2cccc(NC(=O)c3cccc(C(F)(F)F)c3)c2)c2nc3ccccc3nc12` [Compound 10d, 2-amino-1-(3-(3-(trifluoromethyl)benzamido)phenyl)-1H-pyrrolo[2,3-b]quinoxaline-3-carboxamide], the “T1/2 (min, PO)” value in series [1] (mice plasma) amounted to 4.95 h. In series [1], the “Bio-availability (%)” value was 10%. The half-life in series [1] (male, CD-1 (ICD), mouse, IV, 1 mg/kg, mice plasma, read-out: T1/2 (min, IV)) turned out to be 1.18 h. In series [1] (setting [4]), the peak level (Cmax) was 45 ng/mL and the Tmax was 2 h. The Kd on EphA3 [2] was 40.1 nM. The ΔTm at 20 µM at EphA3 [3] is 7.6 °C.

The values above are taken from patent EP2924039A1, “2-Amino-1-phenyl-pyrrolo[3,2-b]quinoxaline-3-carboxamide derivates” (Universität Zürich, priority 2014, dated 2015).
